The record followed here is the supplement of paper PMC10307832.

What all share (assay): relative viability (nuclei count vs DMSO), 5 days (fraction); higher = more cells survive
Compound in the test “Tivantinib + Alpelisib”: O=C1NC(=O)[C@@H](c2cn3c4c(cccc24)CCC3)[C@@H]1c1c[nH]c2ccccc12 [Tivantinib] + Cc1nc(NC(=O)N2CCC[C@H]2C(N)=O)sc1-c1ccnc(C(C)(C)C(F)(F)F)c1 [Alpelisib] (partner 2 µM)
The gist of the method: (§1)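 Lung cancer cell lines, seeded in 1536-well plates, were treated the following day by pin tool with a single drug or with five library-drug doses (not always all listed) in √10 steps on top of a fixed anchor-drug dose. Cells were fixed and nuclei stained in one step after 5 days, and nuclei were counted. Relative viability is the nuclei count for treated wells divided by that for vehicle wells, reported as medians of duplicate plates.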

Compound in the test “Crenolanib + Trametinib”: CC1(COc2ccc3c(c2)ncn3-c2ccc3cccc(N4CCC(N)CC4)c3n2)COC1 [Crenolanib] + CC(=O)Nc1cccc(-n2c(=O)n(C3CC3)c(=O)c3c(Nc4ccc(I)cc4F)n(C)c(=O)c(C)c32)c1 [Trametinib] (partner 0.02 µM)
In short, it runs like this:
as §1

Compound in the test “Tivantinib + Crizotinib”: O=C1NC(=O)[C@@H](c2cn3c4c(cccc24)CCC3)[C@@H]1c1c[nH]c2ccccc12 [Tivantinib] + C[C@@H](Oc1cc(-c2cnn(C3CCNCC3)c2)cnc1N)c1c(Cl)ccc(F)c1Cl [Crizotinib] (partner 1 µM)
In short, it runs like this: as §1

Compound in the test “Crenolanib + Decitabine”: CC1(COc2ccc3c(c2)ncn3-c2ccc3cccc(N4CCC(N)CC4)c3n2)COC1 [Crenolanib] + Nc1ncn([C@H]2C[C@H](O)[C@@H](CO)O2)c(=O)n1 [Decitabine] (partner 2 µM)
The gist of the method: as §1

Consider UMC-11, for which the relative viability with Tivantinib + Alpelisib (first compound 0.01 µM) stood at 0.961; in the test with Tivantinib + Alpelisib (first compound 0.03162 µM) it was 0.939; in the test with Tivantinib + Alpelisib (first compound 0.1 µM) it was 0.876; with Tivantinib + Alpelisib (first compound 0.3162 µM) it was 0.939; in the test with Crenolanib + Trametinib (first compound 0.01 µM) it was 0.74; with Crenolanib + Trametinib (first compound 0.03162 µM), 0.676. Also, the relative viability with Crenolanib + Trametinib (first compound 0.1 µM) stood at 0.683; with Crenolanib + Trametinib (first compound 0.3162 µM) it was 0.68; in the test with Crenolanib + Trametinib (first compound 1 µM), 0.684; in the test with Tivantinib + Crizotinib (first compound 0.01 µM), 0.662; in the test with Tivantinib + Crizotinib (first compound 0.03162 µM) it was 0.601; with Tivantinib + Crizotinib (first compound 0.1 µM) it was 0.637. The relative viability with Tivantinib + Crizotinib (first compound 0.3162 µM) was determined as 0.531; with Crenolanib + Decitabine (first compound 0.01 µM) it was 0.669; with Crenolanib + Decitabine (first compound 0.03162 µM), 0.578; with Crenolanib + Decitabine (first compound 0.1 µM), 0.627; with Crenolanib + Decitabine (first compound 0.3162 µM), 0.588; with Crenolanib + Decitabine (first compound 1 µM), 0.557.
